Data reported in US7307081B2, “Piperidine derivatives useful as CCR5 antagonists” (priority 2002, dated 2007).
Read-outs that look alike come from different tables or passages of the source.

Tested on: HIV-1 luciferase reporter virus (ADA-Luc-FL, YU-2-Luc-FL, HxB-Luc-FL) in U87-CD4-CCR5 cells
Experiment: Luciferase Replication Assay (HIV replication)
Type: cell-based
Description: Luciferase Replication Assay:
Plasmids encoding the full length genome of HIV-1 pNL-4-Luc with the gp 120 V-3 loop replaced by the Bgl II fragment of HIV-1 ADA, YU-2 or HxB (ADA-Luc-FL, YU-2-Luc-FL and HxB-Luc-FL) are obtained from Dr. Susan Pontow (Washington University, St. Louis Mo.). Replication-competent luciferase reporter virus stocks are generated by transfection of plasmids into 293T cells using Superfect (Qiagen) or Mirus transfection reagents. Viral stocks are collected 48 hours following transfection and titered for luciferase production on U-87-CCR5 or CXCR4 cells. U87-CD4-CCR5 cells (10^4/ well) are plated in 96-well cell culture plates and incubated overnight. Media is removed and replaced with 50 μl of fresh culture media (DMEM, 10% FCS) and 50 μl of compound diluted in culture medium. Cells are incubated with compound at 37° C. for 1 hour. The resultant supernatant is removed and replaced with 20 μl of media containing compound and infected with an equal volume of diluted or undiluted virus stock at 37° C. for 3-4 hours. The cells are washed once with DMEM, and 200 μl of media containing compound is added. The cultures are incubated for 3 days, the cells lysed in luciferase lysis buffer (Promega, Madison, Wis.) and transferred to Immulon plates (Dynex Technologies, Chantilly Va.). An equal volume of luciferase substrate (Promega, Madison Wis.) is added to lysates and the plates read immediately in a Wallac Luminometer. Fifty and ninety percent inhibitory concentrations are determined using GraphPad PRISM software.

[1] = read-out: HIV Replication (Luciferase) IC50 nM, U87-CD4-CCR5 cells, replication-competent luciferase reporter virus, cultures incubated 3 days
[2] = Human immunodeficiency virus 1, U87/CD4/CCR5, 72 h, read-out: HIV Replication (Luciferase) IC50 nM, U87-CD4-CCR5 cells, replication-competent luciferase reporter virus, cultures incubated 3 days

**Q.** With `Cc1ncnc(C)c1C(=O)N1CCC(C)(N2CCN(C(c3ccccc3)C3CCCN(S(=O)(=O)C4CC4)C3)[C@@H](C)C2)CC1` (stereo partly shown) [Example 5] as the molecule, how does the IC50 [1] read?
**A.** Its IC50 is 15 nM.

**Q.** For `Cc1ncnc(C)c1C(=O)N1CCC(C)(N2CCN([C@@H](c3cccc(F)c3)C3CN(S(=O)(=O)c4ccccc4)C3)[C@@H](C)C2)CC1` [Example 13], which IC50 [2] is on record?
**A.** The IC50 was 0.7 nM.

**Q.** `Cc1ncnc(C)c1C(=O)N1CCC(C)(N2CCN(C(CC3CCN(S(=O)(=O)C4CC4)CC3)c3cccc(F)c3)[C@@H](C)C2)CC1` (stereo partly shown) [Example 10] was tested. Which IC50 [2] did it give?
**A.** The IC50 was 3 nM.

**Q.** `COc1ccc(CN2CCCC([C@H](c3ccccc3)N3CCN(C4(C)CCN(C(=O)c5c(C)ncnc5C)CC4)C[C@@H]3C)C2)cc1` (stereo partly shown) [Example 8] was tested. Which IC50 [2] did it give?
**A.** The IC50 was 1.6 nM.

**Q.** How did the IC50 [2] turn out when `Cc1ncnc(C)c1C(=O)N1CCC(C)(N2CCN([C@@H](Cc3ccccc3)C3CN(C(=O)C4CC4)C3)[C@@H](C)C2)CC1` [Example 19] was run?
**A.** Its IC50 is 13 nM.

**Q.** With `Cc1ncnc(C)c1C(=O)N1CCC(C)(N2CCN([C@@H](c3cccc(F)c3)C3CN(S(C)(=O)=O)C3)[C@@H](C)C2)CC1` [Example 14] as the molecule, how does the IC50 [2] read?
**A.** The IC50 was 2 nM.

**Q.** How did the IC50 [2] turn out when `Cc1ncnc(C)c1C(=O)N1CCC(C)(N2CCN([C@@H](c3ccccc3)C3CCCNC3)[C@@H](C)C2)CC1` (stereo partly shown) [Example 9] was run?
**A.** The IC50 was 11 nM.

**Q.** `Cc1ncnc(C)c1C(=O)N1CCC(C)(N2CCN([C@@H](Cc3ccccc3)C3CN(S(C)(=O)=O)C3)[C@@H](C)C2)CC1` [Example 18] was tested. Which IC50 [2] did it give?
**A.** Its IC50 is 17 nM.

**Q.** With `Cc1ncnc(C)c1C(=O)N1CCC(C)(N2CCN([C@@H](c3cccc(F)c3)C3CCN(S(=O)(=O)C4CC4)C3)[C@@H](C)C2)CC1` (mixture of isomers) [Example 11] as the molecule, how does the IC50 [2] read?
**A.** The IC50 was 0.3 nM.

**Q.** How did the IC50 [2] turn out when `Cc1ncnc(C)c1C(=O)N1CCC(C)(N2CCN(C(c3ccccc3)C3CCCN(S(C)(=O)=O)C3)[C@@H](C)C2)CC1` (stereo partly shown) [Example 7] was run?
**A.** The IC50 was 0.5 nM.

**Q.** Which IC50 [1] does the source give for `Cc1ncnc(C)c1C(=O)N1CCC(C)(N2CCN(C(c3ccccc3)C3CCCN(S(=O)(=O)C4CC4)C3)[C@@H](C)C2)CC1` (stereo partly shown) [Example 6] here?
**A.** The IC50 was 0.7 nM.

**Q.** With `Cc1ncnc(C)c1C(=O)N1CCC(C)(N2CCN(C(Cc3ccccc3)C3CCCN(S(=O)(=O)c4cccc(Cl)c4)C3)[C@@H](C)C2)CC1` (mixture of isomers) [Example 3] as the molecule, how does the IC50 [2] read?
**A.** Its IC50 is 2 nM.

**Q.** Which IC50 [2] does the source give for `Cc1ncnc(C)c1C(=O)N1CCC(C)(N2CCN([C@@H](Cc3ccccc3)C3CN(S(=O)(=O)C4CC4)C3)[C@@H](C)C2)CC1` [Example 16] here?
**A.** Its IC50 is 4 nM.

**Q.** Which IC50 [2] does the source give for `Cc1ncnc(C)c1C(=O)N1CCC(C)(N2CCN([C@@H](c3cccc(F)c3)C3CN(C(=O)C4CC4)C3)[C@@H](C)C2)CC1` [Example 15] here?
**A.** The IC50 was 5 nM.

**Q.** `Cc1ncnc(C)c1C(=O)N1CCC(C)(N2CCN([C@@H](c3cccc(F)c3)C3CN(S(=O)(=O)C4CC4)C3)[C@@H](C)C2)CC1` [Example 12] was tested. Which IC50 [2] did it give?
**A.** The IC50 was 1 nM.

**Q.** For `Cc1ncnc(C)c1C(=O)N1CCC(C)(N2CCN(C(Cc3ccccc3)C3CCCN(S(=O)(=O)C4CC4)C3)[C@@H](C)C2)CC1` (mixture of isomers) [Example 1], which IC50 [2] is on record?
**A.** Its IC50 is 2 nM.

**Q.** Which IC50 [2] does the source give for `Cc1ncnc(C)c1C(=O)N1CCC(C)(N2CCN(C(Cc3ccccc3)C3CCCNC3)[C@@H](C)C2)CC1` (mixture of isomers) [Example 4] here?
**A.** Its IC50 is 4 nM.

**Q.** How did the IC50 [2] turn out when `Cc1ncnc(C)c1C(=O)N1CCC(C)(N2CCN([C@@H](Cc3ccccc3)C3CN(S(=O)(=O)c4ccccc4)C3)[C@@H](C)C2)CC1` [Example 17] was run?
**A.** The IC50 was 0.4 nM.

**Q.** `COc1ccc(CN2CCCC(C(Cc3ccccc3)N3CCN(C4(C)CCN(C(=O)c5c(C)ncnc5C)CC4)C[C@@H]3C)C2)cc1` (mixture of isomers) [Example 2] was tested. Which IC50 [2] did it give?
**A.** Its IC50 is 25 nM.
